Test results from patent publication US20230027026A1, “FUSED PYRIMIDINE COMPOUNDS, COMPOSITIONS AND MEDICINAL APPLICATIONS THEREOF” (JUBILANT BIOSYS LIMITED, priority 2019, published 2023).

What was measured:
A431 cells = experiment: Cellular proliferation (Alamar Blue) assay, A431; format: cell-based; conditions: Homo sapiens, A-431; A431 cells, 72 hr, Alamar Blue; read-out: A431 IC50
In short: (§1)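 Seventy-two-hour growth assay with 3-fold compound titration (final 10–0.0005 μM) and Alamar Blue fluorescence end point, ex 540/em 590 nm.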

[1] = molecular target: EGFR(D770_N771insSVD) expressing Ba/F3 stable cell line (Homo sapiens, UniProt P00533, DUP768-770, cells depend on it); experiment: Cellular proliferation (Alamar Blue) assay, EGFR D770_N771insSVD Ba/F3; format: cell-based; conditions: EGFR D770_N771insSVD Ba/F3, 72 hr, read-out: D770 IC50
Sequence of EGFR(D770_N771insSVD) expressing Ba/F3 stable cell line (P00533 with tags, fused parts or gaps DUP768-770): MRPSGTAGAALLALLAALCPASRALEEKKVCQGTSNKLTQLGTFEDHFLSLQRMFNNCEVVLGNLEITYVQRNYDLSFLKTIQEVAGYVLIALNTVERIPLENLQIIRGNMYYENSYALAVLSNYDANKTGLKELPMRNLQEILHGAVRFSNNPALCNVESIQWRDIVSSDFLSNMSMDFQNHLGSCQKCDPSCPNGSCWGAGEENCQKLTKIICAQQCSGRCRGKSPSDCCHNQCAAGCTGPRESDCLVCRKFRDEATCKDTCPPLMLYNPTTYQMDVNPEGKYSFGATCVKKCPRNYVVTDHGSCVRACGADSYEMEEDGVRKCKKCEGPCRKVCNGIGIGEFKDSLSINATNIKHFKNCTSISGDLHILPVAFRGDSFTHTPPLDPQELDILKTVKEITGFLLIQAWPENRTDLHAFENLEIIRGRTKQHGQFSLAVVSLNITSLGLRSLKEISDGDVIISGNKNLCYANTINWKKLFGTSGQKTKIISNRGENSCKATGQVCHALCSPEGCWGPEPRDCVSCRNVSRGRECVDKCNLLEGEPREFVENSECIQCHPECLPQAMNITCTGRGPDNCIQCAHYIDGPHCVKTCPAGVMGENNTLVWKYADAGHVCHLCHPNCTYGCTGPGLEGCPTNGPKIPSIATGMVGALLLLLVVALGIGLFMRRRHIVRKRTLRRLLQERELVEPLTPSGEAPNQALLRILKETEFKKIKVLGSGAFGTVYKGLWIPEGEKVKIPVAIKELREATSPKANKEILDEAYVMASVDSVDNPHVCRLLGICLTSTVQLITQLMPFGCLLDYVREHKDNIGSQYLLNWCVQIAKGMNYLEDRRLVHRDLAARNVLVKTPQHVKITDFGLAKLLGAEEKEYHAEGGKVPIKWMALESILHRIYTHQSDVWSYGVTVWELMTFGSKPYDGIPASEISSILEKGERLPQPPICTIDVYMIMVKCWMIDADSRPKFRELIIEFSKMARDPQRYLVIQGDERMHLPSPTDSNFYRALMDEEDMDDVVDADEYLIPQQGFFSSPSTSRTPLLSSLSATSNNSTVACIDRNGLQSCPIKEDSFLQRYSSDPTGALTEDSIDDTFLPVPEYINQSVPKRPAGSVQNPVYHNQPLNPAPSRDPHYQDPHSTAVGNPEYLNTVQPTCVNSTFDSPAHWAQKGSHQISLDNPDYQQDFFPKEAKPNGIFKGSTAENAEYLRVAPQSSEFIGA
In short: as §1

[2] = test system: H1975 cells (L858R_T790M mutant); experiment: H1975 proliferation assay; format: cell-based; conditions: Homo sapiens, NCI-H1975; read-out: Proliferation_Assay H1975 cells-EC50_nM L858R_T790M_mutant
[3] = molecular target: EGFR (A767_dupASV) expressing Ba/F3 stable cell line (Homo sapiens, UniProt P00533, DUP767-769, cells depend on it); experiment: Cellular proliferation (Alamar Blue) assay, EGFR A767_dupASV Ba/F3; format: cell-based; conditions: EGFR A767_dupASV Ba/F3, 72 hr, read-out: A767 IC50
Sequence of EGFR (A767_dupASV) expressing Ba/F3 stable cell line (P00533 with tags, fused parts or gaps DUP767-769): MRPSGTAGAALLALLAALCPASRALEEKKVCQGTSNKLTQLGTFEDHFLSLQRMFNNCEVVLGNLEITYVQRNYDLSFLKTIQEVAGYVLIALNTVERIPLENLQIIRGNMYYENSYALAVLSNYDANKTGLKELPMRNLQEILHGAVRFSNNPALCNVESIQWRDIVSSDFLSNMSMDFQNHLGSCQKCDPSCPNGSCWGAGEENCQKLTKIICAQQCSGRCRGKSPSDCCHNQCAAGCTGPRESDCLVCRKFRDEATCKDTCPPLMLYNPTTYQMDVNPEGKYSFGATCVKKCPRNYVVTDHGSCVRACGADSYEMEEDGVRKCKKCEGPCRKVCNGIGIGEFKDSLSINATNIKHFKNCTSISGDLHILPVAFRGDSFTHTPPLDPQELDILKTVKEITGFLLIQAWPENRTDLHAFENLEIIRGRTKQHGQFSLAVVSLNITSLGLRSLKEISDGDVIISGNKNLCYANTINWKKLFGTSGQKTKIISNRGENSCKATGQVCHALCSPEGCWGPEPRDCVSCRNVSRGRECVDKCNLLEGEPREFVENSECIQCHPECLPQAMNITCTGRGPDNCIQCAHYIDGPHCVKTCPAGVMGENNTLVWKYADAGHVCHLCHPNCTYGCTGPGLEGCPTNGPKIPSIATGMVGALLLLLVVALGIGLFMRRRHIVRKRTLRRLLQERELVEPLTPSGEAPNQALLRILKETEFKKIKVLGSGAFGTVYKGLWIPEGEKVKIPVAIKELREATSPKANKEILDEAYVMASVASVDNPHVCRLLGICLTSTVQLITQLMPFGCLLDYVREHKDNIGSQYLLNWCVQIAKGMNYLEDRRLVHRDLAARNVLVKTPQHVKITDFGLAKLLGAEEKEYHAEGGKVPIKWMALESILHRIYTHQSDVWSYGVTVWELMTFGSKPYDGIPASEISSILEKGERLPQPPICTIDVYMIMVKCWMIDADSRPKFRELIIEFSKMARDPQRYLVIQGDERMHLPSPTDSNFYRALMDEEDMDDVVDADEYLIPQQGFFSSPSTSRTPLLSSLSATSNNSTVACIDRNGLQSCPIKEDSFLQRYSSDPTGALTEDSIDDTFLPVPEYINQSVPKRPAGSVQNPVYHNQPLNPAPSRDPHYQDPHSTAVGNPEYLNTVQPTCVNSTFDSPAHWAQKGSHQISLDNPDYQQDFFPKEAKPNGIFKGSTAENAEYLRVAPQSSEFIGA
In short: as §1

EGFR (T790M/L858R) = molecular target: T1, EGFR (T790M/L858R) (Homo sapiens, UniProt P00533, L858R/T790M); experiment: EGFR L858R/T790M enzyme inhibition assay (HTRF); format: biochemical; conditions: 5 μM ATP, 60 min, read-out: EGFR_L858R T790M_IC50_nM
T1 construct: GST; purchased Proqinase
T1 sequence (P00533 25-1210 T790M/L858R): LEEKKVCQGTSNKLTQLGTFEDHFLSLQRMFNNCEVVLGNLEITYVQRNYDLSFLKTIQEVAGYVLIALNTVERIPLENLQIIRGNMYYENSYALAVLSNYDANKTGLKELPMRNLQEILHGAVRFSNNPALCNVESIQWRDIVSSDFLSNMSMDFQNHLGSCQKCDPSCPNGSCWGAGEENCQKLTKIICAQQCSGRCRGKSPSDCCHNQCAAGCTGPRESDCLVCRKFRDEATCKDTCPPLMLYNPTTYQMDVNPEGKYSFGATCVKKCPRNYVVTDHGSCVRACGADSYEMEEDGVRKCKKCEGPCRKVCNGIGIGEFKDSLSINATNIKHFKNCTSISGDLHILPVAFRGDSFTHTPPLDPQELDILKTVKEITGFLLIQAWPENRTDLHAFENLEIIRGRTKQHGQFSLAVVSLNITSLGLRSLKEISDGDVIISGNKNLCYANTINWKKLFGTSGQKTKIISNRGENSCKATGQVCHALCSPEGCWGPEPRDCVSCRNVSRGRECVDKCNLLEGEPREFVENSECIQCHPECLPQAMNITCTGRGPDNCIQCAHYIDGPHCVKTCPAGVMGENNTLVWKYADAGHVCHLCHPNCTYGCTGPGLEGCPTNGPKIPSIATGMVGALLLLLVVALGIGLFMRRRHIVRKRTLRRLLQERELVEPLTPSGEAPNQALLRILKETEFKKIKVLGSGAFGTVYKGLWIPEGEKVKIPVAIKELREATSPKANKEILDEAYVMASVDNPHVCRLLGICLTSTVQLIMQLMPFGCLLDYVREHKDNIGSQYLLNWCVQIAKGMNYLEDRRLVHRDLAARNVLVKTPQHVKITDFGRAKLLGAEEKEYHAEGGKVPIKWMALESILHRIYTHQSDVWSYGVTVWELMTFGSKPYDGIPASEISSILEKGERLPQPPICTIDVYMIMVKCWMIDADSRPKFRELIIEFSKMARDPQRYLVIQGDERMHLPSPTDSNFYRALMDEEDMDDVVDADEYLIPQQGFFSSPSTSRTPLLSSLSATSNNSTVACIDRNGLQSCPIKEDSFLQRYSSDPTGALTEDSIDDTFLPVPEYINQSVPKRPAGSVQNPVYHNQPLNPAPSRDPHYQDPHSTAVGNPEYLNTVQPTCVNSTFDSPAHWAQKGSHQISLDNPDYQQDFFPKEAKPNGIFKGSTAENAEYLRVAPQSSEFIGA
Method: Example 2: EGFR L858R & Del19/T790M Assay Protocol (to Find the IC50 for the Compounds Using HTRF Method)
Reagents for Enzyme Assay:
• 1. Enzyme Assay Buffer: 60 mM HEPES (pH 7.4), 50 mM NaCl, 20 mM MgCl2, 5 mM MnCl2, filtered using 0.2 μm pore size, stored at 4° C. • Supplements (added fresh to the enzyme buffer): 1M DTT stock was made, 5% BSA stock and 0.1M Na3OV4 stored at 4° C. Enzyme assay buffer 50 mL, 1 M DTT 100 μL, 5% BSA 500 μL, 0.1 M Na3OV4 50 μL. • 2. GST-hEGFR (L858R), active: EGFR (T790M/L858R), active (Proqinase), 3.6 μM stock; 2.5 nM in final assay. • 3. Gastrin Precusor-Biotinylated: Gastrin precursor (Tyr87) biotinylated peptide, EEAY*GWM, Cell Signaling Tech 1310, Lot-7, Want final 0.5 μM in assay. • 4. ATP: 10 mM stock in 100 μL Enzyme assay buffer pH 7.4 prepared freshly, want 5 μM in final assay. • 5. Test compounds: Powders were dissolved in 100% DMSO and made up to a final stock concentration of 10 mM (volume in μL to add for 10 mM=mg powder X 10^5/MW). Final compound concentration in the assay plate started at 10 μM.
• 1. HTRF buffer: 50 mM Tris —HCl, pH-7.5, 100 mM NaCl, 0.1% BSA, 0.05% Tween20, 0.5 mM EDTA, filtered using 0.2 μm pore size, stored at 4° C. • Phycolink® Streptavidin-Allophycocyanin (SA-APC) Prozyme, Cat. #PJ25S, Lot #896 085, 2.06 mg/mL, APC concentration is 11.6 μM, streptavidin concentration is 15.5 μM. Want 12 nM final in assay (based on streptavidin concentration). • 2. (Europium) Eu-W1024 Anti-phosphotyrosine (PT-66) Antibody: Perkin Elmer (Product Number: AD0068), monoclonal IgG1 that recognizes phosphotyrosine peptide 100 μg/ml stock. Want 0.1 nM final in assay.
• 1. The compound dilution was made by TECAN as per the above scheme. • 2. 16 μL of diluted compound was added to the assay plate by using TECAN. • 3. 10 μL of enzyme mix was added to each well except mins. • 4. 20 μL of substrate and ATP mix were added into each well of the assay plate, manually. • 5. The plate was incubated on a laboratory shaker at room temperature for 60 min. • 6. Meanwhile, the HTRF mix was prepared and 75 μL was added to the HTRF plate. • 7. When the incubation was over, 10 μL of the reaction mixture was transferred to the HTRF assay plate and incubated on a laboratory shaker for 30 min at room temperature. • 8. The reading was taken in Pherastar (ext 337 nm, Em 665 & 620 nm). • 9. The results were analyzed using Graphpad prism after calculation of the z factor, signal window and % inhibition to get the IC50.

SMILES | IC50 (A431 cells) [µM] | GI50 [1] [µM] | EC50 [2] [µM] | GI50 [3] [µM] | IC50 (EGFR (T790M/L858R)) [µM]
C=CC(=O)N1CCC(N2C(=O)N(Cc3ccccc3)Cc3cnc(Nc4cn(C)nc4Cl)nc32)C1 (racemic) [Compound 37, 1-(1-acryloylpyrrolidin-3-yl)-3-benzyl-7-((3-chloro-1-methyl-1H-pyrazol-4-yl)amino)-3,4-dihydropyrimido[4,5-d]pyrimidin-2(1H)-one] | ≥ 10 | ≥ 10 | 0.372 | ≥ 10 | 0.167
C=CC(=O)N1CC[C@H](N2C(=O)N(Cc3ccccc3)Cc3cnc(Nc4cn(C)nc4Cl)nc32)C1 (single isomer, unassigned) [Compound 39] | ≥ 10 | 9.35 | 0.637 | ≥ 10 | 0.112
CN(C)C/C=C/C(=O)Nc1cccc(N2C(=O)N(Cc3ccc(F)cc3)Cc3cnc(Nc4cnn(C)c4)nc32)c1 [Compound 2, (E)-4-(dimethylamino)-N-(3-(3-(4-fluorobenzyl)-7-((1-methyl-1H-pyrazol-4-yl)amino)-2-oxo-3,4-dihydropyrimido[4,5-d]pyrimidin-1(2H)-yl)phenyl)but-2-enamide] | 0.615 | 0.893 | 0.0197 | 0.414 | 0.002
C=CC(=O)Nc1cccc(N2C(=O)N(Cc3ccc(F)cc3)Cc3cnc(Nc4cnn(C)c4)nc32)c1 [Compound 3, N-(3-(3-(4-fluorobenzyl)-7-((1-methyl-1H-pyrazol-4-yl)amino)-2-oxo-3,4-dihydropyrimido[4,5-d]pyrimidin-1(2H)-yl)phenyl)acrylamide] | 0.676 | 0.131 | 0.0409 | 0.184 | 0.013
C=CC(=O)Nc1cccc(N2C(=O)N(Cc3ccccc3)Cc3cnc(Nc4cnn(C)c4C)nc32)c1 [Compound 4, N-(3-(3-benzyl-7-((1,5-dimethyl-1H-pyrazol-4-yl)amino)-2-oxo-3,4-dihydropyrimido[4,5-d]pyrimidin-1(2H)-yl)phenyl)acrylamide] | 0.078 | 0.04 | 0.0049 | 0.057 | 0.0024
Cc1nn(CC(F)(F)F)cc1Nc1ncc2c(n1)N(c1cccc(NC(=O)/C=C/CN(C)C)c1)C(=O)N(Cc1ccccc1)C2 [Compound 8, (E)-N-(3-(3-benzyl-7-((3-methyl-1-(2,2,2-trifluoroethyl)-1H-pyrazol-4-yl)amino)-2-oxo-3,4-dihydropyrimido[4,5-d]pyrimidin-1(2H)-yl)phenyl)-4-(dimethylamino)but-2-enamide] | 0.58 | 0.108 | 0.0092 | 0.103 | 0.009
Cc1c(Nc2ncc3c(n2)N(c2cccc(NC(=O)/C=C/CN(C)C)c2)C(=O)N(Cc2ccccc2)C3)cnn1C [Compound 11, (E)-N-(3-(3-benzyl-7-((1,5-dimethyl-1H-pyrazol-4-yl)amino)-2-oxo-3,4-dihydropyrimido[4,5-d]pyrimidin-1(2H)-yl)phenyl)-4-(dimethylamino)but-2-enamide] | 1.71 | 2.43 | 0.0096 | 1.15 | 0.002
CN(C)C/C=C/C(=O)Nc1cccc(N2C(=O)N(Cc3ccccc3)Cc3cnc(Nc4cnn(CC(F)(F)F)c4)nc32)c1 [Compound 12, (E)-N-(3-(3-benzyl-2-oxo-7-((1-(2,2,2-trifluoroethyl)-1H-pyrazol-4-yl)amino)-3,4-dihydropyrimido[4,5-d]pyrimidin-1(2H)-yl)phenyl)-4-(dimethylamino)but-2-enamide] | 1.24 | 0.134 | 0.0066 | 0.106 | 0.003
C=CC(=O)Nc1cccc(N2C(=O)N(Cc3ccccc3)Cc3cnc(Nc4cnn(CCO)c4)nc32)c1 [Compound 13, N-(3-(3-benzyl-7-((1-(2-hydroxyethyl)-1H-pyrazol-4-yl)amino)-2-oxo-3,4-dihydropyrimido[4,5-d]pyrimidin-1(2H)-yl)phenyl)acrylamide] | 0.059 | 0.042 | 0.0015 | 0.045 | 0.001
CN(C)C/C=C/C(=O)Nc1cccc(N2C(=O)N(Cc3ccccc3)Cc3cnc(Nc4cnn(CCO)c4)nc32)c1 [Compound 14, (E)-N-(3-(3-benzyl-7-((1-(2-hydroxyethyl)-1H-pyrazol-4-yl)amino)-2-oxo-3,4-dihydropyrimido[4,5-d]pyrimidin-1(2H)-yl)phenyl)-4-(dimethylamino)but-2-enamide] | 6.08 | 2.92 | 0.0378 | 2.57 | 0.005
COCCn1cc(Nc2ncc3c(n2)N(c2cccc(NC(=O)/C=C/CN(C)C)c2)C(=O)N(Cc2ccccc2)C3)cn1 [Compound 16, (E)-N-(3-(3-benzyl-7-((1-(2-methoxyethyl)-1H-pyrazol-4-yl)amino)-2-oxo-3,4-dihydropyrimido[4,5-d]pyrimidin-1(2H)-yl)phenyl)-4-(dimethylamino)but-2-enamide] | 0.371 | 2.31 | 0.0157 | 1.17 | 0.001
CN(C)C/C=C/C(=O)Nc1cccc(N2C(=O)N(c3ccc(F)cc3)Cc3cnc(Nc4cnn(C)c4)nc32)c1 [Compound 18, (E)-4-(dimethylamino)-N-(3-(3-(4-fluorophenyl)-7-((1-methyl-1H-pyrazol-4-yl)amino)-2-oxo-3,4-dihydropyrimido[4,5-d]pyrimidin-1(2H)-yl)phenyl)but-2-enamide] | 0.332 | 1.1 | 0.034 | 0.421 | 0.0025
CN(C)C/C=C/C(=O)N(C)c1cccc(N2C(=O)N(Cc3ccccc3)Cc3cnc(Nc4cnn(C)c4)nc32)c1 [Compound 21, (E)-N-(3-(3-benzyl-7-((1-methyl-1H-pyrazol-4-yl)amino)-2-oxo-3,4-dihydropyrimido[4,5-d]pyrimidin-1(2H)-yl)phenyl)-4-(dimethylamino)-N-methylbut-2-enamide] | 2.08 | 3.35 | 0.0839 | 2.81 | 0.045
Cc1cc(Nc2ncc3c(n2)N(c2cccc(NC(=O)/C=C/CN(C)C)c2)C(=O)N(Cc2ccccc2)C3)sn1 [Compound 22, (E)-N-(3-(3-benzyl-7-((3-methylisothiazol-5-yl)amino)-2-oxo-3,4-dihydropyrimido[4,5-d]pyrimidin-1(2H)-yl)phenyl)-4-(dimethylamino)but-2-enamide] | 0.046 | 0.278 | 0.01 | 0.121 | 0.007
Cc1nn(C)cc1Nc1ncc2c(n1)N(c1cccc(NC(=O)/C=C/CN(C)C)c1)C(=O)N(Cc1ccccc1)C2 [Compound 23, (E)-N-(3-(3-benzyl-7-((1,3-dimethyl-1H-pyrazol-4-yl)amino)-2-oxo-3,4-dihydropyrimido[4,5-d]pyrimidin-1(2H)-yl)phenyl)-4-(dimethylamino)but-2-enamide] | 0.018 | 0.299 | 0.0064 | 0.124 | 0.003
